Measurements as given in BigSolDB 2.1.

Cc1cc([N+](=O)[O-])ccc1N
Conditions | solubility (mole fraction)
in 2-butanone, 278.15 K | 0.0846
in 2-butanone, 280.65 K | 0.0899
in 2-butanone, 283.15 K | 0.0955
in 2-butanone, 285.65 K | 0.101
in 2-butanone, 288.15 K | 0.107
in 2-butanone, 290.65 K | 0.114
in 2-butanone, 293.15 K | 0.12
in 2-butanone, 295.65 K | 0.127
in 2-butanone, 298.15 K | 0.134
in 2-butanone, 300.65 K | 0.141
in 2-butanone, 303.15 K | 0.149
in 2-butanone, 305.65 K | 0.157
in 2-butanone, 308.15 K | 0.165
in 2-butanone, 310.65 K | 0.174
in 2-butanone, 313.15 K | 0.183
in acetone, 278.15 K | 0.0764
in acetone, 280.65 K | 0.0815
in acetone, 283.15 K | 0.0875
in acetone, 285.65 K | 0.0933
in acetone, 288.15 K | 0.0996
in acetone, 290.65 K | 0.106
in acetone, 293.15 K | 0.113
in acetone, 295.65 K | 0.12
in acetone, 298.15 K | 0.127
in acetone, 300.65 K | 0.135
in acetone, 303.15 K | 0.142
in acetone, 305.65 K | 0.151
in acetonitrile, 278.15 K | 0.0308
in acetonitrile, 280.65 K | 0.0335
in acetonitrile, 283.15 K | 0.0362
in acetonitrile, 285.65 K | 0.039
in acetonitrile, 288.15 K | 0.0423
in acetonitrile, 290.65 K | 0.0456
in acetonitrile, 293.15 K | 0.0491
in acetonitrile, 295.65 K | 0.0528
in acetonitrile, 298.15 K | 0.0566
in acetonitrile, 300.65 K | 0.0607
in acetonitrile, 303.15 K | 0.0651
in acetonitrile, 305.65 K | 0.0699
in acetonitrile, 308.15 K | 0.0747
in acetonitrile, 310.65 K | 0.0797
in acetonitrile, 313.15 K | 0.0852
in cyclohexane, 283.15 K | 2.5e-05
in cyclohexane, 285.65 K | 2.87e-05
in cyclohexane, 288.15 K | 3.37e-05
in cyclohexane, 290.65 K | 3.87e-05
in cyclohexane, 293.15 K | 4.47e-05
in cyclohexane, 295.65 K | 5.27e-05
in cyclohexane, 298.15 K | 6.13e-05
in cyclohexane, 300.65 K | 6.99e-05
in cyclohexane, 303.15 K | 8.08e-05
in cyclohexane, 305.65 K | 9.26e-05
in cyclohexane, 308.15 K | 0.000108
in cyclohexane, 310.65 K | 0.000122
in cyclohexane, 313.15 K | 0.000139
in ethanol, 278.15 K | 0.00732
in ethanol, 280.65 K | 0.00807
in ethanol, 283.15 K | 0.00887
in ethanol, 285.65 K | 0.00974
in ethanol, 288.15 K | 0.0107
in ethanol, 290.65 K | 0.0117
in ethanol, 293.15 K | 0.0127
in ethanol, 295.65 K | 0.0139
in ethanol, 298.15 K | 0.0152
in ethanol, 300.65 K | 0.0165
in ethanol, 303.15 K | 0.018
in ethanol, 305.65 K | 0.0197
in ethanol, 308.15 K | 0.0213
in ethanol, 310.65 K | 0.0231
in ethanol, 313.15 K | 0.025
in ethyl acetate, 278.15 K | 0.062
in ethyl acetate, 280.65 K | 0.0669
in ethyl acetate, 283.15 K | 0.0722
in ethyl acetate, 285.65 K | 0.0776
in ethyl acetate, 288.15 K | 0.0837
in ethyl acetate, 290.65 K | 0.0897
in ethyl acetate, 293.15 K | 0.096
in ethyl acetate, 295.65 K | 0.103
in ethyl acetate, 298.15 K | 0.11
in ethyl acetate, 300.65 K | 0.117
in ethyl acetate, 303.15 K | 0.125
in ethyl acetate, 305.65 K | 0.133
in ethyl acetate, 308.15 K | 0.142
in ethyl acetate, 310.65 K | 0.151
in ethyl acetate, 313.15 K | 0.16
in isopropanol, 278.15 K | 0.00459
in isopropanol, 280.65 K | 0.00511
in isopropanol, 283.15 K | 0.00572
in isopropanol, 285.65 K | 0.00635
in isopropanol, 288.15 K | 0.00707
in isopropanol, 290.65 K | 0.00781
in isopropanol, 293.15 K | 0.00865
in isopropanol, 295.65 K | 0.00961
in isopropanol, 298.15 K | 0.0106
in isopropanol, 300.65 K | 0.0118
in isopropanol, 303.15 K | 0.0129
in isopropanol, 305.65 K | 0.0142
in isopropanol, 308.15 K | 0.0157
in isopropanol, 310.65 K | 0.0172
in isopropanol, 313.15 K | 0.0189
in methanol, 278.15 K | 0.00834
in methanol, 280.65 K | 0.00913
in methanol, 283.15 K | 0.0101
in methanol, 285.65 K | 0.0109
in methanol, 288.15 K | 0.0119
in methanol, 290.65 K | 0.0131
in methanol, 293.15 K | 0.0142
in methanol, 295.65 K | 0.0155
in methanol, 298.15 K | 0.0168
in methanol, 300.65 K | 0.018
in methanol, 303.15 K | 0.0198
in methanol, 305.65 K | 0.0213
in methanol, 308.15 K | 0.0231
in methanol, 310.65 K | 0.0249
in methanol, 313.15 K | 0.027
in n-butanol, 278.15 K | 0.00492
in n-butanol, 280.65 K | 0.00552
in n-butanol, 283.15 K | 0.00618
in n-butanol, 285.65 K | 0.00691
in n-butanol, 288.15 K | 0.00778
in n-butanol, 290.65 K | 0.00858
in n-butanol, 293.15 K | 0.00951
in n-butanol, 295.65 K | 0.0106
in n-butanol, 298.15 K | 0.0118
in n-butanol, 300.65 K | 0.0131
in n-butanol, 303.15 K | 0.0145
in n-butanol, 305.65 K | 0.016
in n-butanol, 308.15 K | 0.0177
in n-butanol, 310.65 K | 0.0196
in n-butanol, 313.15 K | 0.0216
in n-propanol, 278.15 K | 0.00631
in n-propanol, 280.65 K | 0.00701
in n-propanol, 283.15 K | 0.00776
in n-propanol, 285.65 K | 0.00853
in n-propanol, 288.15 K | 0.00939
in n-propanol, 290.65 K | 0.0103
in n-propanol, 293.15 K | 0.0113
in n-propanol, 295.65 K | 0.0124
in n-propanol, 298.15 K | 0.0136
in n-propanol, 300.65 K | 0.0148
in n-propanol, 303.15 K | 0.0162
in n-propanol, 305.65 K | 0.0176
in n-propanol, 308.15 K | 0.0192
in n-propanol, 310.65 K | 0.0209
in n-propanol, 313.15 K | 0.0227
in toluene, 278.15 K | 0.00159
in toluene, 280.65 K | 0.00178
in toluene, 283.15 K | 0.00204
in toluene, 285.65 K | 0.0023
in toluene, 288.15 K | 0.00258
in toluene, 290.65 K | 0.00285
in toluene, 293.15 K | 0.00317
in toluene, 295.65 K | 0.00353
in toluene, 298.15 K | 0.00391
in toluene, 300.65 K | 0.00439
in toluene, 303.15 K | 0.0048
in toluene, 305.65 K | 0.00527
in toluene, 308.15 K | 0.00584
in toluene, 310.65 K | 0.00645
in toluene, 313.15 K | 0.00714
